Measured values reported in ChEMBL document CHEMBL5316290, “Targeted Protein Degradation Induced by HEMTACs Based on HSP90” (J Med Chem, 2023).
The source made the active and inactive calls. The calls are words filed in the database; no cut-off is given here.

What was measured:
[1] = target: Protein cereblon/Cyclin-dependent kinase 4 (Mus musculus) (UniProt P30285+Q8C7D2); assay: Protac activity at CRBN/CDK4 in mouse B16-F10 cells assessed as induction of CDK4 degradation at 0.05 uM incubated for 24 hrs by Western blot analysis; format: cell-based
Chain of Protein cereblon/Cyclin-dependent kinase 4 (Mus musculus) (P30285 whole entry, looked up): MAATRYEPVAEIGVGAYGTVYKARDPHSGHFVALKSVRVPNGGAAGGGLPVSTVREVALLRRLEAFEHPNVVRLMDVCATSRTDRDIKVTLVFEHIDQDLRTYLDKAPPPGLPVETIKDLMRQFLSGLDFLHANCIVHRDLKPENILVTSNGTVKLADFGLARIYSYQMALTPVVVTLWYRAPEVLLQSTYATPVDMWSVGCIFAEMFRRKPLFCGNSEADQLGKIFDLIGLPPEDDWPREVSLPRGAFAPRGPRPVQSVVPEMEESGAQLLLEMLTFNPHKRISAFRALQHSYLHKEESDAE
Chain of Protein cereblon/Cyclin-dependent kinase 4 (Mus musculus) (Q8C7D2 whole entry, looked up): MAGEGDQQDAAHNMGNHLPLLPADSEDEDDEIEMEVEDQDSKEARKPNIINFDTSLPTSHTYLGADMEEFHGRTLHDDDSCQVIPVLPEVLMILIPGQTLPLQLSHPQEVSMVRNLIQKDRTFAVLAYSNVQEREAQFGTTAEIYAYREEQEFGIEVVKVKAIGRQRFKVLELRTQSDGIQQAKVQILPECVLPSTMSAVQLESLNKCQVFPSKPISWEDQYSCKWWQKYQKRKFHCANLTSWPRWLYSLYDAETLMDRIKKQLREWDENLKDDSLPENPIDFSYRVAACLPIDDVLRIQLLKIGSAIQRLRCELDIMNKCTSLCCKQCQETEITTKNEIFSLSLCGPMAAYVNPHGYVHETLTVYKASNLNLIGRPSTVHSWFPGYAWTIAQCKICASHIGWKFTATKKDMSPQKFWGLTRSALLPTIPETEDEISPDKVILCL

[2] = target: Protein cereblon/Cyclin-dependent kinase 6 (Mus musculus) (UniProt Q8C7D2+Q64261); assay: Protac activity at CRBN/CDK6 in mouse B16-F10 cells assessed as induction of CDK4 degradation at 0.05 uM incubated for 24 hrs by Western blot analysis; format: cell-based
[3] = target: Heat shock protein HSP 90-alpha (Homo sapiens, UniProt P07900); assay: Binding affinity to CM5 sensor chip immobilized human HSP90alpha assessed as dissociation constant by SPR analysis
[4] = target: HSP90/Cyclin-dependent kinase 4 (Mus musculus, UniProt P07901+P11499+P30285); assay: HEMTAC activity at HSP90/CDK4 in mouse B16-F10 cells assessed as induction of CDK4 degradation incubated for 24 hrs by Western blot analysis; format: cell-based
[5] = target: HSP90/Cyclin-dependent kinase 6 (Mus musculus, UniProt P07901+P11499+Q64261); assay: HEMTAC activity at HSP90/CDK6 in mouse B16-F10 cells assessed as induction of […] degradation incubated for 24 hrs by Western blot analysis; format: cell-based
[6] = test system: A549; assay: Cytotoxicity against human A549 cells assessed as inhibition of cell growth incubated for 72 hrs by CCK-8 assay; format: functional, cell-based; settings: A549, 72 h
[7] = test system: HFF-1; assay: Cytotoxicity against human HFF-1 cells assessed as reduction of cell viability incubated for 72 hrs by CCK-8 assay; format: toxicity, cell-based; settings: hff-1, 72 h
[8] = test system: B16-F10; assay: Cytotoxicity against mouse B16-F10 cells assessed as inhibition of cell growth incubated for 72 hrs by CCK-8 assay; format: functional, cell-based; settings: B16-F10, 72 h
[9] = test system: A-375; assay: Cytotoxicity against human A-375 cells assessed as inhibition of cell growth incubated for 72 hrs by CCK-8 assay; format: functional, cell-based; settings: A-375, 72 h
[10] = test system: HepG2; assay: Cytotoxicity against human HepG2 cells assessed as inhibition of cell growth incubated for 72 hrs by CCK-8 assay; format: functional, cell-based; settings: HepG2, 72 h
[11] = test system: MDA-MB-231; assay: Cytotoxicity against human MDA-MB-231 cells assessed as inhibition of cell growth incubated for 72 hrs by CCK-8 assay; format: functional, cell-based; settings: MDA-MB-231, 72 h
[12] = target: HSP90/Cyclin-dependent kinase 4 (Mus musculus) (UniProt P30285+P07901+P11499); assay: HEMTAC activity at HSP90/CDK4 in mouse B16-F10 cells assessed as induction of CDK4 degradation at 0.01 to 1 uM measured after 24 hrs by Western blot analysis; format: cell-based; settings: dose 0.01-1 µM
[13] = target: HSP90/Cyclin-dependent kinase 6 (Mus musculus) (UniProt P07901+Q64261+P11499); assay: HEMTAC activity at HSP90/CDK6 in mouse B16-F10 cells assessed as induction of […] degradation at 0.01 to 1 uM measured after 24 hrs by Western blot analysis; format: cell-based; settings: dose 0.01-1 µM
[14] = test system: B16-F10; assay: Induction of apoptosis in mouse B16-F10 cells assessed as live cells at 125 nM incubated for 48 hrs by Annexin V-FITC/PI staining based flow cytometry analysis (reference value: 92.85 %); format: functional
[15] = test system: B16-F10; assay: Induction of apoptosis in mouse B16-F10 cells assessed as early apoptotic cells at 125 nM incubated for 48 hrs by Annexin V-FITC/PI staining based flow cytometry analysis (reference value: 3.42%); format: functional
[16] = test system: B16-F10; assay: Induction of apoptosis in mouse B16-F10 cells assessed as late apoptotic cells at 125 nM incubated for 48 hrs by Annexin V-FITC/PI staining based flow cytometry analysis (reference value: 1.97%); format: functional
[17] = test system: B16-F10; assay: Induction of apoptosis in mouse B16-F10 cells assessed as dead cells at 125 nM incubated for 48 hrs by Annexin V-FITC/PI staining based flow cytometry analysis (reference value: 1.75%); format: functional
[18] = test system: B16-F10; assay: Induction of apoptosis in mouse B16-F10 cells assessed as live cells at 250 nM incubated for 48 hrs by Annexin V-FITC/PI staining based flow cytometry analysis (reference value: 92.85 %); format: functional
[19] = test system: B16-F10; assay: Induction of apoptosis in mouse B16-F10 cells assessed as early apoptotic cells at 250 nM incubated for 48 hrs by Annexin V-FITC/PI staining based flow cytometry analysis (reference value: 3.42%); format: functional
[20] = test system: B16-F10; assay: Induction of apoptosis in mouse B16-F10 cells assessed as late apoptotic cells at 250 nM incubated for 48 hrs by Annexin V-FITC/PI staining based flow cytometry analysis (reference value: 1.97%); format: functional
[21] = test system: B16-F10; assay: Induction of apoptosis in mouse B16-F10 cells assessed as dead cells at 250 nM incubated for 48 hrs by Annexin V-FITC/PI staining based flow cytometry analysis (reference value: 1.75%); format: functional
[22] = test system: B16-F10; assay: Induction of cell cycle arrest in mouse B16-F10 cells assessed as accumulation of cells at G1 phase at 125 nM incubated for 24 hrs by RNase/PI staining based flow cytometry analysis (reference value: 68.89%); format: functional
[23] = test system: B16-F10; assay: Induction of cell cycle arrest in mouse B16-F10 cells assessed as accumulation of cells at G2 phase at 125 nM incubated for 24 hrs by RNase/PI staining based flow cytometry analysis (reference value: 16.13%); format: functional
[24] = test system: B16-F10; assay: Induction of cell cycle arrest in mouse B16-F10 cells assessed as accumulation of cells at S phase at 125 nM incubated for 24 hrs by RNase/PI staining based flow cytometry analysis (reference value: 12.45%); format: functional
[25] = test system: B16-F10; assay: Induction of cell cycle arrest in mouse B16-F10 cells assessed as accumulation of cells at G1 phase at 250 nM incubated for 24 hrs by RNase/PI staining based flow cytometry analysis (reference value: 68.89%); format: functional
[26] = test system: B16-F10; assay: Induction of cell cycle arrest in mouse B16-F10 cells assessed as accumulation of cells at G2 phase at 250 nM incubated for 24 hrs by RNase/PI staining based flow cytometry analysis (reference value: 16.13%); format: functional
[27] = test system: B16-F10; assay: Induction of cell cycle arrest in mouse B16-F10 cells assessed as accumulation of cells at S phase at 250 nM incubated for 24 hrs by RNase/PI staining based flow cytometry analysis (reference value: 12.45%); format: functional
[28] = Acute toxicity in zebra fish embryos incubated for 72 hrs; set-up: species or system Danio rerio; settings: zebrafish
[29] = Toxicity in C57BL/6J mouse implanted with mouse B16-F10 cells at 20 mg/kg, ip administered once daily for 2 weeks and measured every 2 days; format: organism-based; settings: in vivo, 336 h

CC(=O)c1c(C)c2cnc(Nc3ccc(N4CCN(CCCCNC(=O)COc5cccc6c5C(=O)N(C5CCC(=O)NC5=O)C6=O)CC4)cn3)nc2n(C2CCCC2)c1=O (configuration not stated)
Activity [1]: Active | Activity [2]: Active

COc1c(C)cnc(Cn2cc(C#CCCNC(=O)CN3CCN(c4ccc(Nc5ncc6c(C)c(C(C)=O)c(=O)n(C7CCCC7)c6n5)nc4)CC3)c3c(Cl)nc(N)nc32)c1C
Kd [3]: 8.39 nM | EC50 [4]: 96 nM | EC50 [5]: 88 nM | IC50 [6]: 607 nM | Activity [7]: Non-Toxic | IC50 [8]: 821 nM | IC50 [9]: 906 nM | IC50 [10]: 547 nM | IC50 [11]: > 10000 nM

COc1c(C)cnc(Cn2cc(C#CCCn3cc(CNC(=O)CN4CCN(c5ccc(Nc6ncc7c(C)c(C(C)=O)c(=O)n(C8CCCC8)c7n6)nc5)CC4)nn3)c3c(Cl)nc(NC(C)=O)nc32)c1C
Activity [12]: inactive | Activity [13]: inactive

COc1c(C)cnc(Cn2cc(C#CCCn3cc(C(=O)N4CCN(c5ccc(Nc6ncc7c(C)c(C(C)=O)c(=O)n(C8CCCC8)c7n6)nc5)CC4)nn3)c3c(Cl)nc(N)nc32)c1C
Kd [3]: 460 nM | EC50 [4]: 110 nM | EC50 [5]: 105 nM | IC50 [6]: 2440 nM | Activity [7]: Non-Toxic | IC50 [8]: 546 nM | IC50 [9]: 293 nM | IC50 [10]: 1710 nM | IC50 [11]: > 10000 nM

COc1c(C)cnc(Cn2cc(C#CCCn3cc(C(=O)NCCNC(=O)CN4CCN(c5ccc(Nc6ncc7c(C)c(C(C)=O)c(=O)n(C8CCCC8)c7n6)nc5)CC4)nn3)c3c(Cl)nc(N)nc32)c1C
Kd [3]: 67.5 nM | EC50 [4]: 446 nM | EC50 [5]: 325 nM | IC50 [6]: > 10000 nM | Activity [7]: Non-Toxic | IC50 [8]: 6820 nM | IC50 [9]: 7640 nM | IC50 [10]: > 10000 nM | IC50 [11]: 3630 nM

COc1c(C)cnc(Cn2cc(C#CCCn3cc(C(=O)NCCOCCNC(=O)CN4CCN(c5ccc(Nc6ncc7c(C)c(C(C)=O)c(=O)n(C8CCCC8)c7n6)nc5)CC4)nn3)c3c(Cl)nc(N)nc32)c1C
Kd [3]: 306 nM | EC50 [4]: > 500 nM | EC50 [5]: 478 nM | IC50 [6]: 8890 nM | Activity [7]: Non-Toxic | IC50 [8]: 7880 nM | IC50 [9]: 6340 nM | IC50 [10]: 3760 nM | IC50 [11]: 1850 nM

CC(=O)c1c(C)c2cnc(Nc3ccc(N4CCNCC4)cn3)nc2n(C2CCCC2)c1=O [PALBOCICLIB]
IC50 [6]: > 10000 nM | Activity [7]: Non-Toxic | IC50 [8]: > 10000 nM | Activity [14]: 86.8% | IC50 [9]: > 10000 nM | IC50 [10]: > 10000 nM | IC50 [11]: > 10000 nM | Activity [15]: 2.55% | Activity [16]: 5.31% | Activity [17]: 5.34% | Activity [18]: 89.12% | Activity [19]: 2.53% | Activity [20]: 5.51% | Activity [21]: 2.84% | Activity [22]: 72.84% | Activity [23]: 13.57% | Activity [24]: 13.29% | Activity [25]: 74.4% | Activity [26]: 15.63% | Activity [27]: 9.98% | LC50 at 72 h [28]: > 100000 nM

COc1c(C)cnc(Cn2cc(C#CCCn3cc(C(=O)NCCOCCOCCNC(=O)CN4CCN(c5ccc(Nc6ncc7c(C)c(C(C)=O)c(=O)n(C8CCCC8)c7n6)nc5)CC4)nn3)c3c(Cl)nc(N)nc32)c1C
Kd [3]: 18.7 nM | EC50 [4]: 268 nM | EC50 [5]: 245 nM | IC50 [6]: 3550 nM | Activity [7]: Non-Toxic | IC50 [8]: 1000 nM | IC50 [9]: 1840 nM | IC50 [10]: 2540 nM | IC50 [11]: 1140 nM

COc1c(C)cnc(Cn2cnc3c(Cl)nc(N)nc32)c1C [BIIB021]
IC50 [6]: 134 nM | Activity [7]: Toxic | IC50 [8]: 176 nM | Activity [14]: 78.06% | IC50 [9]: 253 nM | IC50 [10]: 113 nM | IC50 [11]: 339 nM | Activity [15]: 13.64% | Activity [16]: 6.27% | Activity [17]: 2.03% | Activity [18]: 68.27% | Activity [19]: 16.92% | Activity [20]: 12.55% | Activity [21]: 2.26% | Activity [22]: 73.13% | Activity [23]: 14.09% | Activity [24]: 12.26% | Activity [25]: 77.76% | Activity [26]: 18.95% | Activity [27]: 2.62% | LC50 at 72 h [28]: < 1000 nM | Activity [29]: Non-Toxic
